In ChEMBL document CHEMBL1157539, “Thousands of chemical starting points for antimalarial lead identification” (Nature, 2010):

The compounds below were run on Plasmodium falciparum (assay: GSK_TCMDC: Inhibition of Plasmodium falciparum 3D7 in whole erythrocytes, using parasite LDH activity as an index of growth.). Conditions: Plasmodium falciparum, 3D7.
Assay type: functional, organism-based

Compound	XC50 [nM]
COC(=O)CCCCCOc1cc(Cc2cnc(N)nc2N)cc(OC)c1OC	179
CCn1c(C(C)C)cc2c3c(N)nc(N)nc3ccc21	12.4
COc1ccc2nc3cc(Cl)ccc3c(NCCCCNc3c4ccc(Cl)cc4nc4ccc(OC)cc34)c2c1	160
Cc1[nH]c(C)c(-c2ccc(Oc3ccc(Cl)cc3)cc2)c(=O)c1Br	592
O=C1SC(S)=NC1=CNCCCCCCO	850
Cc1cc(NCCCOc2ccc(Cl)cc2)nc(NCc2ccccc2)n1	782
Cc1cnc(NCC2CCCCC2)nc1N[C@@H](CC(C)C)C(=O)Nc1ccccc1	869
N#Cc1ccc(N/C(=N\c2ccccc2Cl)NC2CCN(Cc3ccccc3)CC2)c(O)c1	300
O=C(c1cccs1)N(Cc1cccc(-c2ccc(CNCCc3ccccc3)cc2)c1)C1CCN(Cc2ccccc2)CC1	860
Cc1cc(Cl)ccc1N(Cc1ccccc1)c1ccnc(Cl)n1	859
CC(C)(C)c1cc(C(=O)N2CCC(c3ccccn3)CC2)n(Cc2ccccc2)n1	955
COc1cc(CNCCC(C)C)ccc1OCc1cccc(COc2ccc(CNCCC(C)C)cc2OC)c1	492
CNC(=O)c1ccccc1Nc1nc(Nc2ccc(N3CCN(C)CC3)nc2)ncc1C	1140
FC(F)(F)c1cccc(CNCC2CCN(CC3CCCCC3)CC2)c1	402
COc1cc2c(cc1N1CCN(C)CC1)N(C(=O)Nc1ccc(-c3ccncc3)c(Cl)c1Cl)CC2	608
CO/C(=C\C=C\c1cc2cc(Cl)c(Cl)cc2[nH]1)C(=O)NCCCN1CCN(c2cccc(CCCO)c2)CC1	1030
CCCCCCCN1CCC(NC(=O)Nc2ccnc3ccc(OC)cc23)C(C(=O)OCC)C1 (stereo not drawn)	426
Cc1cc(N[C@@H](Cc2ccccc2)C(=O)NCCc2ccccc2)nc(NCCc2cccs2)n1	713
O=C(/C=C/c1ccc(Cl)c(Cl)c1)N1CCC(CCN2CCC(c3c[nH]c4cc5c(cc34)OCO5)CC2)CC1	732

Compound	XC50 [nM]
Cc1cc(Nc2ccc(OCc3ccccc3Cl)cc2)c2cc(Cl)ccc2n1	433
C=CCOc1ccc2ccccc2c1CNCCCCCCNCc1c(OCC=C)ccc2ccccc12	859
CCOc1cc(Br)c(C(C)NC(=O)c2cccc(OC)c2)cc1OCC (stereo not drawn)	168
NCc1cccc(-c2ccccc2CNC2CCN(Cc3ccccc3)CC2)c1	770
O=C(NNC(=O)c1ccc(CCN2CCC(c3nc(COCC(F)(F)F)c(-c4ccc(F)cc4)o3)CC2)cc1)Nc1ccc(Oc2ccccc2)cc1	708
COc1ccc(CNCc2ccccc2)cc1-c1ccc(S(=O)(=O)NCCN2CCCC2)cc1	824
CCCC(C)NC(=O)[C@H](CC1CCCCC1)NC(=O)c1ccc(O)c(-c2ccc(OC)cc2)c1 (stereo partly drawn)	1130
Cc1nc(C)c(-c2ccc(Cl)cc2Cl)c(O)c1Br	1010
Clc1ccc(CNc2nc(NCCc3c[nH]cn3)nc(N3CCCC4CCCCC43)n2)cc1 (stereo not drawn)	591
CC[C@H]1CN2CC[C@H]1C[C@H]2[C@H](O)c1cc(/C=C/c2ccc(F)cc2)nc2ccc(OC)cc12	28.1
COc1ccc(O)c(C(=O)c2cc(C(=O)NC3CCCCC3)c(=O)n(C3CCCCC3)c2)c1	664
CCc1ccc(NC(=O)N(CCCN2CCN(C)CC2)Cc2csc(-c3ccc(CNCc4ccccc4)cc3)n2)cc1	1010
COc1cc(F)c2ncc(Cl)c(CCN3CCC(NCc4ccc5c(n4)NC(=O)CS5)CC3)c2c1	482
COc1ccc(-c2cccc(NC(=O)c3ccc(Cl)cc3)c2)cc1CN1CCC(O)CC1	791
Cn1cnc(CCNC(=O)c2cccc(-c3csc(-c4nc5ccccc5[nH]4)c3)c2)c1	599
O=C(Nc1cccc(-c2ccc(-c3nc4ccccc4[nH]3)cc2)c1)c1cccnc1	1040
CN1CCN(CCc2ccc(N/C=C3\C(=O)Nc4ccc5ncccc5c43)cc2)CC1	325
Nc1c(C(=O)NCCCCN2CCN(c3nsc4ccccc34)CC2)sc2ccccc12	1320
CCCNC(=O)Nc1cc2cc(-c3cccc(CN4CCCCC4)c3)ccc2n2c(C)nnc12	1110
